Results published in US9486541B2, “Detecting and treating dementia” (Mayo Foundation for Medical Education and Research, priority 2006, dated 2016).

Assays:
[1] = target: T1, PPARδ (Homo sapiens, UniProt Q03181); conditions: Leesnitzer et al.; cited from earlier work
T1 sequence (Q03181 1-441): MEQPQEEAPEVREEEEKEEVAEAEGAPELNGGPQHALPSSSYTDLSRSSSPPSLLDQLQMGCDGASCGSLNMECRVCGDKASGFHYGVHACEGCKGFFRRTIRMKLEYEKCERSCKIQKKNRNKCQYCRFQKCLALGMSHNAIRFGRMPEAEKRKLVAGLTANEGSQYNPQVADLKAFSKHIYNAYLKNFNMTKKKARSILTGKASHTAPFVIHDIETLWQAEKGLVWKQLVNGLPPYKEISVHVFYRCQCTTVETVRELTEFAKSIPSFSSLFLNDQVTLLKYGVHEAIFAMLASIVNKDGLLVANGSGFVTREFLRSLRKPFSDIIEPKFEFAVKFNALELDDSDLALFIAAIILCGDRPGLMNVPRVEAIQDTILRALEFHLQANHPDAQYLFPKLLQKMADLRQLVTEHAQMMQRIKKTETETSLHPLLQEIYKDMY

[2] = target: T2, PPARα (Homo sapiens, UniProt Q07869); conditions: Leesnitzer et al.; cited from earlier work
T2 sequence (Q07869 1-468): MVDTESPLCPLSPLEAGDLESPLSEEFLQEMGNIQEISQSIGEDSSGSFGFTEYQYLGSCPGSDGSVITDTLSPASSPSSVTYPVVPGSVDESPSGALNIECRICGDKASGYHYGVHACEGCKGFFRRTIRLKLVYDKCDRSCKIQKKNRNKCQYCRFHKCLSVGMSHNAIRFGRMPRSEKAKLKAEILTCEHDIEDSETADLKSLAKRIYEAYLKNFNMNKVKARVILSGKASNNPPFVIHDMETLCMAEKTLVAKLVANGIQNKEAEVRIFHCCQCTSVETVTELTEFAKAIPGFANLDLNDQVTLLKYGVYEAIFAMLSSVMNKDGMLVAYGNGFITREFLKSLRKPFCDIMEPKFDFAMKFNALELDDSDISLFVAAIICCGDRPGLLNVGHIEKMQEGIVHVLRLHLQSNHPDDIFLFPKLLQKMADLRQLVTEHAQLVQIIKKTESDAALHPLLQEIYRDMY

[3] = tested on: PGRN mRNA; conditions: myeloid cells, Ong et al.; cited from earlier work
[4] = tested on: PGRN polypeptide; assay: PGRN polypeptide expression in HeLa cells by immunohistochemistry; assay type: cell-based, human; conditions: ibuprofen 2.5 μM for 24 hours, vs untreated
Experimental: Treated and untreated HeLa cells were analyzed for PGRN polypeptide expression using immunohistochemistry. […] Levels of PGRN polypeptide in cell culture supernatants and cell lysates of HeLa cells treated with various concentrations of ibuprofen were compared to corresponding PGRN polypeptide levels in HeLa cells treated with DMSO (FIG. 26).

[5] = tested on: PGRN polypeptide; assay: PGRN polypeptide levels in cell lysates and culture supernatants of treated HeLa cells, Western blotting; assay type: cell-based, human; conditions: 1.25 to 20 micromolar ibuprofen, 24 hours, vs DMSO
Experimental: Cell cultures were maintained in standard cell culture media supplemented with 5% fetal bovine serum and 100 U/mL penicillin/streptomycin (Life Technologies, Karlsruhe, Germany). Cell cultures consisted of Chinese hamster ovary (CHO) cells; human HeLa cells (HeLa); BE(2)-M17, human neuroblastoma (M17); N2A, mouse neuroblastoma; and human lymphoblasts.
The following NSAIDs were dissolved in the vehicle DMSO: ibuprofen (Biomol, Plymouth Meeting, Pa.), indomethacin (Biomol), diclofenac (Cayman Chemical, Ann Arbor, Mich.), naproxen (Cayman Chemical), and aspirin (ICN Biomedicals, Irvine, Calif.). Cells were cultured in serum-containing media and treated for 24 hours in serum-free media with a specific NSAID. NSAID toxicity was examined using a standard MTT-assay (3-(4,5-Dimethyl-2-thiazolylyl)-2,5-diphenyl-2H-tetrazolium Bromide). For cell toxicity studies, cells were treated with NSAIDS at concentrations up to 100 micromolar.
Antibodies that were used included a monoclonal human progranulin antibody (Zymed, South San Francisco, Calif.) directed against full length progranulin polypeptide, a mouse progranulin antibody (R&D Systems, Minneapolis, Minn.) directed against full length progranulin polypeptide, and an anti-GAPDH antibody (Sigma-Aldrich).
HeLa cell cultures (N=4 for all studies) were treated with various concentrations of NSAIDs, including ibuprofen, naproxen, indomethacin, meclofenamic acid, and acetylsalicylic acid for 24 hours in serum free media. Levels of PGRN polypeptide in culture supernatants and in cell lysates were analyzed using Western blotting.

[6] = tested on: PGRN polypeptide; assay: PGRN polypeptide levels in treated N2A mouse neuroblastoma cells; assay type: cell-based; conditions: N2A cells, ibuprofen 1 to 5 μM
Experimental: Cell cultures were maintained in standard cell culture media supplemented with 5% fetal bovine serum and 100 U/mL penicillin/streptomycin (Life Technologies, Karlsruhe, Germany). Cell cultures consisted of Chinese hamster ovary (CHO) cells; human HeLa cells (HeLa); BE(2)-M17, human neuroblastoma (M17); […] The following NSAIDs were dissolved in the vehicle DMSO: ibuprofen (Biomol, Plymouth Meeting, Pa.), indomethacin (Biomol), diclofenac (Cayman Chemical, Ann Arbor, Mich.), naproxen (Cayman Chemical), and aspirin (ICN Biomedicals, Irvine, Calif.). Cells were cultured in serum-containing media and treated for 24 hours in serum-free media with a specific NSAID. […] For cell toxicity studies, cells were treated with NSAIDS at concentrations up to 100 micromolar. The following PPAR activators were dissolved in DMSO: ciglitazone (Calbiochem, San Diego, Calif.), fenofibrate (Sigma-Aldrich, Saint Louis, Mo.), clofibrate (Calbiochem), and L165041 (Calbiochem). Cells were cultured in serum-containing media and treated for 24 hours in serum-free media with a specific PPAR agonist. […]

[7] = tested on: PGRN polypeptide; assay: PGRN polypeptide levels in cell lysates and culture supernatants of treated M17 cells, Western blotting; assay type: cell-based, human; conditions: M17 cells, ibuprofen 1 to 5 μM
Experimental: Cell cultures were maintained in standard cell culture media supplemented with 5% fetal bovine serum and 100 U/mL penicillin/streptomycin (Life Technologies, Karlsruhe, Germany). Cell cultures consisted of Chinese hamster ovary (CHO) cells; human HeLa cells (HeLa); BE(2)-M17, human neuroblastoma (M17); […] The following PPAR activators were dissolved in DMSO: ciglitazone (Calbiochem, San Diego, Calif.), fenofibrate (Sigma-Aldrich, Saint Louis, Mo.), clofibrate (Calbiochem), and L165041 (Calbiochem). Cells were cultured in serum-containing media and treated for 24 hours in serum-free media with a specific PPAR agonist. Curcumin (Sigma-Aldrich) and resveratrol (Sigma-Aldrich) were dissolved in DMSO. Cells were cultured in serum-containing media and treated for 24 hours in serum-free media with curcumin or resveratrol. Antibodies that were used included a monoclonal human progranulin antibody (Zymed, South San Francisco, Calif.) directed against full length progranulin polypeptide, a mouse progranulin antibody (R&D Systems, Minneapolis, Minn.) directed against full length progranulin polypeptide, and an anti-GAPDH antibody (Sigma-Aldrich). Cell cultures were treated with increasing concentrations of the PPARα activator clofibrate or with DMSO. Levels of PGRN polypeptide in culture supernatants and in cell lysates were analyzed using Western blotting. The levels of intracellular and secreted forms of PGRN polypeptide were compared in clofibrate treated M17 cell cultures and DMSO treated M17 cell cultures (FIG. 20).

[8] = tested on: GAPDH polypeptide; assay: GAPDH polypeptide expression in treated HeLa cells, Western blot; assay type: cell-based, human; conditions: ibuprofen treatment
[9] = target: T3, PPARγ (Homo sapiens, UniProt P37231); conditions: highly selective agonist, commercial vendors; cited from earlier work
T3 sequence (P37231 1-505): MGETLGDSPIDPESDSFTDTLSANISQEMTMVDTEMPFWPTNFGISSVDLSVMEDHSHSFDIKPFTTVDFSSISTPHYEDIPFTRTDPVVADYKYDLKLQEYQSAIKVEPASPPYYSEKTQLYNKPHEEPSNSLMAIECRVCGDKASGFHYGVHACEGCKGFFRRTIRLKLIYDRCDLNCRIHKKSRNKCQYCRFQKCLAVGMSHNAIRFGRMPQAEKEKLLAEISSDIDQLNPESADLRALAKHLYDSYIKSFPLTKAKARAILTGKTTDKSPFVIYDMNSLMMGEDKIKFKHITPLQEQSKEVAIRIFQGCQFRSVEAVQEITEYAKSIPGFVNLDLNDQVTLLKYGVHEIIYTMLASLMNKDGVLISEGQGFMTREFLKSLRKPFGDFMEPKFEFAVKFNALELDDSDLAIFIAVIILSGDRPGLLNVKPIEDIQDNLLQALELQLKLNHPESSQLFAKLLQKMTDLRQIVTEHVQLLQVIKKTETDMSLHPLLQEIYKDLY

In the case of `O=C(Nc1ccccc1)c1cc([N+](=O)[O-])ccc1Cl` [GW9662, 2-Chloro-5-nitro-N-phenylbenzamide], the “block of PPARδ receptors” value [1] is listed as “low micromolar range” and the “block of PPARα receptors” value [2] is listed as “low nM range”.
In the case of `CC1=C(/C=C/C(C)=C/C=C/C(C)=C/C(=O)O)C(C)(C)CCC1` [all trans-retinoic acid], the “PGRN mRNA level” value [3] is listed as “upregulation of PGRN mRNA”.
For `CC(C)Cc1ccc(C(C)C(=O)O)cc1` (stereo not drawn) [ibuprofen], the “PGRN polypeptide expression by immunohistochemistry” value [4] was “increased PGRN polypeptide expression in the Golgi”, the “increase in the level of intracellular PGRN polypeptide” value [5] was “approximately 150%” and the “increase in PGRN polypeptide expression” value [6] was “up to 600%”. The “increase in PGRN polypeptide expression” value [7] was “up to 600%” and the “effect on GAPDH polypeptide expression” value [8] was “No significant effect”.
In the case of GW1929, the “PPARγ agonist activity range” value [9] is listed as “low nM range”.
